# Results from ChEMBL document CHEMBL1255407, “High diversity of extended-spectrum beta-lactamases in Escherichia coli isolates from Italian broiler flocks” (2010).
# System: Escherichia coli
# Test: Antimicrobial activity against Escherichia coli isolates producing extended-spectrum beta-lactamases bla(CTX-M-1), bla(CTX-M-32) and bla(SHV-12) isolated from Italian broiler flocks by agar dilution method
# Format: functional
row,MIC,Structure (SMILES)
1,≥ 2 µg/mL,CO/N=C(\C(=O)N[C@@H]1C(=O)N2C(C(=O)O)=C(COC(C)=O)CS[C@H]12)c1csc(N)n1 [CEFOTAXIME]
2,≥ 8 µg/mL,CO/N=C(\C(=O)N[C@@H]1C(=O)N2C(C(=O)O)=C(CSC(=O)c3ccco3)CS[C@H]12)c1csc(N)n1 [CEFTIOFUR]

row,Structure (SMILES),MIC
1,O=C(O)c1cn(C2CC2)c2cc(N3CCNCC3)c(F)cc2c1=O [CIPROFLOXACIN],< 0.03 µg/mL

# System: Escherichia coli
# Test: Antimicrobial activity against Escherichia coli isolates producing extended-spectrum beta-lactamases bla(CTX-M-1), bla(CTX-M-32) and bla(SHV-12) assessed as resistant isolates isolated from Italian broiler flocks by disk diffusion method
row,Structure (SMILES),Activity
1,O=C(O)c1cn(C2CC2)c2cc(N3CCNCC3)c(F)cc2c1=O [CIPROFLOXACIN],44%
2,CN(C)[C@@H]1C(O)=C(C(N)=O)C(=O)[C@@]2(O)C(O)=C3C(=O)c4c(O)cccc4[C@@](C)(O)[C@H]3C[C@@H]12 [TETRACYCLINE],94%
3,CCn1cc(C(=O)O)c(=O)c2ccc(C)nc21 [NALIDIXIC ACID],83%
